TGI and GI50 data for ten molecules are collected here from PubChem BioAssay (NCI).

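How tested: cells in 96-well plates exposed to compound for 48 hours at five concentrations. GI50 is the concentration that inhibits growth by half. TGI marks complete inhibition of growth.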

Among the test systems are HCT-15 colon; MALME-3M melanoma; SF-295 CNS; M14 melanoma; LOX IMVI melanoma; EKVX NSCLC; SR leukemia; SK-MEL-28 melanoma; SK-MEL-2 melanoma; ACHN renal.
Holding throughout (test): inhibition of tumour cell growth, NCI panel, 48 h

Regarding `O=c1c2ccccc2nc2n1NC(c1c(Cl)cccc1Cl)N2c1cccc(Cl)c1` (stereo not given), the TGI was above 100 µM in the assay with HCT-15 colon; 29.7 µM with MALME-3M melanoma; above 100 µM in the assay on SF-295 CNS; 66.6 µM in the assay on M14 melanoma; above 100 µM with LOX IMVI melanoma; above 100 µM with EKVX NSCLC. The TGI in the assay on SR leukemia is above 100 µM; in the assay with SK-MEL-28 melanoma, above 100 µM; with SK-MEL-2 melanoma it was above 100 µM; in the assay on ACHN renal, 12.5 µM.

`OC1(c2ccccc2)CC2CCC(C1)N2CCc1ccccc1` (stereo not given): the TGI in the assay on HCT-15 colon, in the assay on MALME-3M melanoma, in the assay on SF-295 CNS, in the assay with M14 melanoma, with LOX IMVI melanoma and in the assay with EKVX NSCLC was above 100 µM each time. Also, the TGI with SR leukemia, with SK-MEL-28 melanoma, in the assay on SK-MEL-2 melanoma and with ACHN renal was above 100 µM throughout.

For `Cc1ccc(/C=C2\CN(C)CC3=C2OC(N)=C(C#N)C3c2ccc(C)cc2)cc1` (stereo not given), the TGI is 42.9 µM in the assay on HCT-15 colon; 37.2 µM in the assay on MALME-3M melanoma; 46 µM in the assay with SF-295 CNS; 43.9 µM with M14 melanoma; 27.2 µM in the assay on LOX IMVI melanoma; 56.5 µM with EKVX NSCLC. Besides, the TGI with SR leukemia was above 100 µM; in the assay on SK-MEL-28 melanoma, above 71.5 µM; in the assay with SK-MEL-2 melanoma, above 63.4 µM; with ACHN renal it was 50 µM.

On to `CCc1ccc(-c2nnc(COc3ccc(-c4nc5ccc(C)cc5[nH]4)cc3OC)o2)cc1`, for which the GI50 in the assay on HCT-15 colon was 2.82 µM; in the assay with MALME-3M melanoma it was 1.56 µM; in the assay with SF-295 CNS, 2.33 µM; with M14 melanoma it was 2.27 µM; in the assay on LOX IMVI melanoma, 1.98 µM; with EKVX NSCLC, 4.14 µM. The GI50 in the assay with SR leukemia is 2.08 µM; in the assay with SK-MEL-28 melanoma, 2.36 µM; in the assay with SK-MEL-2 melanoma, 2.71 µM; in the assay with ACHN renal, 1.78 µM. Also, the TGI in the assay with HCT-15 colon was 10.3 µM; in the assay with MALME-3M melanoma, 3.11 µM; in the assay on SF-295 CNS, 5.75 µM; in the assay on M14 melanoma, 5.84 µM; in the assay on LOX IMVI melanoma, 4.25 µM; in the assay on EKVX NSCLC, above 100 µM. The TGI is 5.22 µM in the assay on SR leukemia, 6.66 µM in the assay on SK-MEL-28 melanoma, 7.81 µM in the assay on SK-MEL-2 melanoma and 3.19 µM in the assay on ACHN renal.

Take `CCOc1c2ccsc2c(OCC)c2ccsc12`: the TGI was above 30.7 µM in the assay on HCT-15 colon; above 100 µM in the assay with MALME-3M melanoma; 9.84 µM in the assay on SF-295 CNS; above 100 µM with M14 melanoma; 23 µM with LOX IMVI melanoma; above 100 µM in the assay with EKVX NSCLC. The TGI in the assay with SR leukemia, in the assay with SK-MEL-28 melanoma, with SK-MEL-2 melanoma and in the assay with ACHN renal was above 100 µM throughout.

As to `CCOC(=O)c1c(C)n(Cc2ccccc2)c(=O)c2ccccc2c(=O)c2c(=O)ccc(=O)c1=2`, the TGI in the assay with HCT-15 colon is above 100 µM; in the assay on MALME-3M melanoma, 41.9 µM; with SF-295 CNS, above 100 µM; with M14 melanoma, above 100 µM; with LOX IMVI melanoma it was 53.5 µM; in the assay on EKVX NSCLC it was above 100 µM. For the same molecule, the TGI with SR leukemia was above 100 µM; in the assay on SK-MEL-28 melanoma, above 100 µM; in the assay on SK-MEL-2 melanoma, above 100 µM; in the assay on ACHN renal, 77.1 µM.

`CNC(=S)/C(=N\Nc1nc[nH]c1C(N)=O)C(N)=S`: the TGI was above 100 µM in the assay on HCT-15 colon; above 54.8 µM with MALME-3M melanoma; 41.6 µM in the assay on SF-295 CNS; above 100 µM in the assay on M14 melanoma; above 37.9 µM with LOX IMVI melanoma; above 100 µM in the assay with EKVX NSCLC. Also, the TGI with SR leukemia is 0.468 µM; in the assay with SK-MEL-28 melanoma it was above 100 µM; with SK-MEL-2 melanoma, above 82.3 µM; with ACHN renal, 61.8 µM.

For the molecule `Cc1cc2nc3n[nH]c(N)c3nc2cc1C`, the TGI with HCT-15 colon, with MALME-3M melanoma, with SF-295 CNS, in the assay on M14 melanoma, with LOX IMVI melanoma and with EKVX NSCLC was above 100 µM each time. Besides, the TGI in the assay on SR leukemia, in the assay on SK-MEL-28 melanoma, with SK-MEL-2 melanoma and in the assay on ACHN renal was above 100 µM throughout.

Regarding `COc1cc(NS(C)(=O)=O)ccc1NCc1cnc2ccc3[nH]c(C)ccc3c12`, the TGI with HCT-15 colon, in the assay on MALME-3M melanoma, in the assay on SF-295 CNS, in the assay with M14 melanoma, in the assay on LOX IMVI melanoma and in the assay with EKVX NSCLC was above 100 µM in each case. Besides, the TGI with SR leukemia was 33.5 µM; in the assay with SK-MEL-28 melanoma, above 100 µM; in the assay on SK-MEL-2 melanoma, 52.3 µM; with ACHN renal it was above 100 µM.

With `CN1CCCN2CCN(C)CCN(CC1)CC2`, the TGI in the assay on HCT-15 colon, in the assay with MALME-3M melanoma, in the assay with SF-295 CNS, with M14 melanoma, in the assay on LOX IMVI melanoma and with EKVX NSCLC was above 100 µM each time. Further, the TGI in the assay with SR leukemia, with SK-MEL-28 melanoma, in the assay with SK-MEL-2 melanoma and with ACHN renal was above 100 µM each time.
